This passage reports IC50 results from ChEMBL document CHEMBL1148482, “Novel benzophenones as non-nucleoside reverse transcriptase inhibitors of HIV-1” (J Med Chem, 2004).

For assay [1], the system named is Human immunodeficiency virus 1. As to the kind of experiment: Antiviral activity against Y188C strain of HIV-1. It is filed as functional, organism-based.
The test system of assay [2] is Human immunodeficiency virus 1. As to the kind of experiment: Antiviral activity against wild-type HIV-1. The format is functional, organism-based.
The subject of assay [3] is Human immunodeficiency virus 1. As to the kind of experiment: Antiviral activity against E138K strain of HIV-1. It is filed as functional, organism-based.
Assay [4] deals with Human immunodeficiency virus 1. Put plainly: Antiviral activity against G190A strain of HIV-1. The format is functional, organism-based.
Assay [5] concerns Human immunodeficiency virus 1. Put plainly: Antiviral activity against K101E strain of HIV-1. The format is functional, organism-based.
For assay [6], the system named is Human immunodeficiency virus 1. Put plainly: Antiviral activity against K103N strain of HIV-1. The format is functional, organism-based.
Assay [7] has as its system Human immunodeficiency virus 1. As to the kind of experiment: Antiviral activity against K103N/G190A strain of HIV-1. The format is functional, organism-based.
In assay [8] the test system is Human immunodeficiency virus 1. As to the kind of experiment: Antiviral activity against K103N/L100I strain of HIV-1. It is filed as functional, organism-based.
Assay [9] deals with Human immunodeficiency virus 1. As to the kind of experiment: Antiviral activity against K103N/P225H strain of HIV-1. The format is functional, organism-based.
The test system of assay [10] is Human immunodeficiency virus 1. Put plainly: Antiviral activity against K103N/V108I strain of HIV-1. It is filed as functional, organism-based.
For assay [11], the system named is Human immunodeficiency virus 1. Put plainly: Antiviral activity against K103N/Y181C strain of HIV-1. The format is functional, organism-based.
Assay [12] deals with Human immunodeficiency virus 1. Put plainly: Antiviral activity against P225H strain of HIV-1. The format is functional, organism-based.
Assay [13] relates to Human immunodeficiency virus 1. Put plainly: Antiviral activity against P236L strain of HIV-1. The format is functional, organism-based.
For assay [14], the system named is Human immunodeficiency virus 1. Put plainly: Antiviral activity against V106A strain of HIV-1. It is filed as functional, organism-based.
The subject of assay [15] is Human immunodeficiency virus 1. Put plainly: Antiviral activity against V106A/Y181C strain of HIV-1. The format is functional, organism-based.
Assay [16] deals with Human immunodeficiency virus 1. As to the kind of experiment: Antiviral activity against V106I strain of HIV-1. The format is functional, organism-based.
In assay [17] the test system is Human immunodeficiency virus 1. Put plainly: Antiviral activity against V106I/Y181C strain of HIV-1. It is filed as functional, organism-based.
In assay [18] the test system is Human immunodeficiency virus 1. As to the kind of experiment: Antiviral activity against V108I strain of HIV-1. It is filed as functional, organism-based.
Assay [19] has as its system Human immunodeficiency virus 1. As to the kind of experiment: Antiviral activity against V108I/Y181C strain of HIV-1. It is filed as functional, organism-based.
Assay [20] deals with Human immunodeficiency virus 1. As to the kind of experiment: Antiviral activity against Y181C strain of HIV-1. It is filed as functional, organism-based.
For assay [21], the system named is MT4. Put plainly: Antiviral activity against MT-4 cells infected with Nev-R strain of HIV-1. As to conditions: Homo sapiens.
The subject of assay [22] is MT4. As to the kind of experiment: Antiviral activity against MT-4 cells infected with wild-type HIV-1. As to conditions: Homo sapiens.
Assay [23] deals with Human immunodeficiency virus 1. Put plainly: Antiviral activity against L100I strain of HIV-1. The format is functional, organism-based.

Usually IC50 stands for the concentration that gives 50% inhibition.

For the compound `Cc1ccnc2c1NC(=O)c1cccnc1N2C1CC1` [NEVIRAPINE], the IC50 in assay [1] is 2300 nM; in assay [2], 100 nM; in [3], 65 nM; in assay [4] it was over 10000 nM; in [5], 520 nM; in assay [6], 6600 nM. In addition, the IC50 in assay [7] was over 10000 nM; in assay [8], 8000 nM; in assay [9], 9800 nM; in assay [10] it was 15000 nM; in [11] it was over 10000 nM; in assay [12] it was 1200 nM. In addition, the IC50 in assay [13] was 56 nM; in [14], 9000 nM; in assay [15] it was over 10000 nM; in assay [16], 150 nM; in [17], over 10000 nM; in assay [18], 290 nM. Also, the IC50 in assay [19] is over 10000 nM; in assay [20] it was 9400 nM; in assay [21], 17200 nM; in assay [22], 96 nM; in assay [23] it was 500 nM.
As to `CC(C)Nc1cccnc1N1CCN(C(=O)c2cc3cc(NS(C)(=O)=O)ccc3[nH]2)CC1` [DELAVIRDINE], the IC50 in assay [1] was found to be 170 nM; in assay [2] it was 200 nM; in assay [3] it was 10 nM; in assay [4], 35 nM; in assay [5], 29 nM; in assay [6] it was 2700 nM. In addition, the IC50 in [7] is 2700 nM; in [8], over 8400 nM; in assay [9], 2300 nM; in assay [10] it was 3500 nM; in assay [11], over 8400 nM; in assay [12], 11 nM. The IC50 is 1600 nM in assay [13]; 900 nM in assay [14]; over 10000 nM in [15]; 55 nM in [16] (read-out: IC50); 4500 nM in [17]; 78 nM in assay [18]. In addition, the IC50 in assay [19] was over 10000 nM; in assay [20] it was 2300 nM; in assay [21] it was 2400 nM; in assay [22], 160 nM; in [23], 920 nM.
For the compound `O=C1Nc2ccc(Cl)cc2[C@@](C#CC2CC2)(C(F)(F)F)O1` [EFAVIRENZ], the values for the IC50 in [21] and in [22] were 2.7 nM and 3.5 nM, respectively.
